Read-outs that look alike come from different tables or passages of the source.
Key:
5-HT4 receptor [1] = target: T1, 5-HT4 receptor (Cavia porcellus, UniProt O70528); assay: Guinea pig colon: 5-HT-evoked contraction of longitudinal muscle-myenteric plexus preparations
Procedure: (§1) In some experiments, this tissue was dosed alternately with an approximately equi-effective concentration of the nicotine receptor stimulant, dimethylphenylpiperazinium (DMPP).

nicotine receptor = assay: Guinea pig colon: DMPP-evoked contraction (nicotinic receptor agonist); settings: 10^-5 M
Procedure: as §1

5-HT4 receptor [2] = target: 5-HT4 receptor (Sus scrofa, UniProt Q6Q253); assay: Piglet atria spontaneous beating screen
Procedure: Compounds are tested in the piglet atria spontaneous beating screen (Naunyn-Schmiedeberg's Arch. Pharmacol 342, 619-622).

5-HT4 receptor [3] = target: T2, 5-HT4 receptor (Rattus norvegicus, UniProt Q62758); assay: Rat oesophagus: relaxation of carbachol-contracted tunica muscularis mucosae
T2 construct: The inner smooth muscle tube of the muscularis mucosae is isolated; from tissue; host or cells: rat oesophageal tunica muscularis mucosae
Source text: Rat oesophageal tunica muscularis mucosae is set up according to Baxter et. al. Naunyn-Schmiedeberg's Arch. Pharmacol., 343, 439-446 (1991). […] In contrast to the guinea-pig colon model, where the 5-HT4 receptor is neuronally-located, the receptor here is located on the smooth muscle.

[4] = target: piglet hippocampal 5-HT4 receptors (Sus scrofa, UniProt Q6Q253); assay: Binding to piglet hippocampal 5-HT4 receptors (125I-SB-207710); settings: inhibition of 125I-SB-207710 binding in hippocampus
5-HT1D = assay: Receptor binding studies: 5-HT1D
Alpha1 = assay: Receptor binding studies: Alpha1
[5] = tested on: 5-HT-induced gastric motility; assay: 5-HT-induced motility in dog gastric pouch; type: in vivo; settings: for ED50: Canis lupus familiaris, read-out: ID50 (contractile response to 5-HT)
Procedure: 4) 5-HT-Induced Motility in Dog Gastric Pouch
Compounds are tested for inhibition in the in vivo method described in "Stimulation of canine motility by BRL 24924, a new gastric prokinetic agent", Bermudez et al, J. Gastrointestinal Motility, 1990, 2(4), 281-286.
Dogs with previously prepared Heidenhain gastric pouches are fasted overnight.

5-HT4 receptors = assay: Antagonism of 5-HT-evoked tachycardia in anaesthetised piglets; type: in vivo, piglet
Procedure: 5) Antagonism in Anaesthetised Piglets
In these experiments, antagonism is assessed against the 5-HT-evoked tachycardia, a response that is mediated by the 5-HT4 receptors. All experiments were in 2-5 day old piglets in which the vagi were sectioned.

5-HT4 receptor [6] = target: T1, 5-HT4 receptor; assay: Distension-evoked peristalsis in guinea pig isolated ileum; settings: 5-HT 10^-7 M
Procedure: 1) Distension-Evoked Peristalsis in Guinea Pig Isolated Ileum
The oral end was connected to a Krebs-filled reservoir and the aboral end to a vertical column open to the air. The intraluminal filling pressure (oral end) and peristaltic pressure (aboral end) were monitored. The threshold pressure for peristalsis was determined by raising the reservoir at increments of 0.5 cm H2 O at 1 min intervals until peristalsis occurred.

[7] = tested on: large bowel motility and fluid secretion; assay: Faecal pellet output and fluid content in conscious fed mice (normal and 5-HTP-treated); type: in vivo, mouse
Source text: 2) Antagonism in Conscious Fed Mice
A model was developed to examine the effect of 5-HT4 receptor antagonists on large bowel motility (faecal pellet output, FPO) and fluid secretion (pellet wet/dry weight) during `fed` conditions. The antagonists are studied in normal mice (to determine adverse effects, eg constipation)and in mice with functional diarrhoea caused by 5-HTP [Banner S E, Smith M I, Bywater D and Sanger G J (1993), Br J Pharmacol, 110, 17 P, and Banner S E, Smith M I and Sanger G J (1993) Br J Pharmacol; 110, 135 P]. Faecal pellets were collected at 10 min intervals so that their number and wet/dry weights could be determined.

anxiolytic activity = assay: Social interaction test in rats; type: in vivo, rat; settings: 0.01, 1, 10 mg.kg^-1
Procedure: IN VIVO TESTING FOR ANXIOLYTIC ACTIVITY
Social Interaction Test in Rats
Rats (male, Sprague Dawleys, Charles River, 250-300 g) are housed in groups of eight in a holding room for 5 days. They are then housed singly in a room adjacent to the experimental room for 4 days prior to the experimental day. On the experimental day rats are administered vehicle, test compound or a benzodiazepine anxiolytic, chlordiazepoxide, p.o. in pairs (n=8-16), at 15 minute intervals beginning at 10.00 a.m. […] The box is made of white perspex 54 cm×37 cm×26 cm with a transparent perspex front side and no lid. The floor is divided up into 24 squares and the box is brightly lit (115 lux). Active social interactive behaviours (grooming, sniffing, climbing over or under, following, biting, mounting and boxing) are scored blind for the next 15 min by remote video monitoring to give total interaction scores. The number of squares crossed by each rat is also scored and summed. After the end of each test the box is carefully wiped.

5-HT4 receptor [8] = target: T1, 5-HT4 receptor
Procedure: Male guinea-pigs, weighing 250-400 g are used. Longitudinal muscle-myenteric plexus preparations, approximately 3 cm long, are obtained from the distal colon region. These are suspended under a 0.5 g load in isolated tissue baths containing Krebs solution bubbled with 5% CO2 in O2 and maintained at 37° C. In all experiments, the Krebs solution also contains methiothepin 10^-7 M and granisetron 10^-6 M to block effects at 5-HT1, 5-HT2 and 5-HT3 receptors.

T1 sequence (O70528 whole entry): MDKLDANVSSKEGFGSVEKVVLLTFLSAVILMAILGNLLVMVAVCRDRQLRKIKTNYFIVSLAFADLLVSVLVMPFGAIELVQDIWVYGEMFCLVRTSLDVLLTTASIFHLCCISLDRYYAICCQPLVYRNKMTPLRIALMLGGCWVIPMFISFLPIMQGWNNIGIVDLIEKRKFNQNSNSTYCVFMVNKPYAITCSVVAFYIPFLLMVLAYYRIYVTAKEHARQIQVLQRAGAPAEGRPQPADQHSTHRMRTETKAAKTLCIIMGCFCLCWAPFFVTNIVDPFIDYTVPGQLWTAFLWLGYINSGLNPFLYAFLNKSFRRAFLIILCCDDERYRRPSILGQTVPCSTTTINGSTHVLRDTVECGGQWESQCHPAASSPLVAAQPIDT
Sequence of 5-HT4 receptor (Sus scrofa, UniProt Q6Q253) (Q6Q253 1-402): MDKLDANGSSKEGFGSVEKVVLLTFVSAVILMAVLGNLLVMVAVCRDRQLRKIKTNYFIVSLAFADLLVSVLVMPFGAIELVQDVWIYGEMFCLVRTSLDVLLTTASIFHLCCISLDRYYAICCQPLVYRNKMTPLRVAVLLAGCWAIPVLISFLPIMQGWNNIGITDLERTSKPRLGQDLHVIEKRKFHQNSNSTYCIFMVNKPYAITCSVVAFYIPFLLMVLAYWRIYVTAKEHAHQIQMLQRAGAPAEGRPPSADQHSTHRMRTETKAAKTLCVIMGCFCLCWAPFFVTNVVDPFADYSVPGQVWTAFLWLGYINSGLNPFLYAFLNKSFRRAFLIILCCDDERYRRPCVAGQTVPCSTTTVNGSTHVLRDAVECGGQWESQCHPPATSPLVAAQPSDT
T2 sequence (Q62758 whole entry): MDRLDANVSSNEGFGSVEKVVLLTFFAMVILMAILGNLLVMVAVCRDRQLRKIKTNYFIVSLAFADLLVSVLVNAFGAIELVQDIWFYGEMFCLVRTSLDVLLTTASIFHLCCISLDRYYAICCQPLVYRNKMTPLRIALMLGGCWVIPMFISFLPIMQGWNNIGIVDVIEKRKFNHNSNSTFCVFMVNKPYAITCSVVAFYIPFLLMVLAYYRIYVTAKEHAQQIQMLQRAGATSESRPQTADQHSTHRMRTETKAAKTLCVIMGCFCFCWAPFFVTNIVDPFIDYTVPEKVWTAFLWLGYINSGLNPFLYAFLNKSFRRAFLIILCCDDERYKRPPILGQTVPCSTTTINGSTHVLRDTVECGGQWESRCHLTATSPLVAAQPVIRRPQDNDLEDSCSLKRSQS
Sequence of piglet hippocampal 5-HT4 receptors (Q6Q253 1-402): as the sequence (Q6Q253 1-402) above

CCCCN1CCC(CNC(=O)c2c3n(c4ccccc24)CCCO3)CC1 [SB-207266-A, N-[(1-^n Butyl-4-piperidyl)methyl]-3,4-dihydro-2 H-[1,3]oxazino[3,2-a]indole-10-Carboxamide]
Kb (5-HT4 receptor [1]): 0.0398 nM
effect on maximum response to 5-HT (5-HT4 receptor [1]; 3×10^-8 M and above): the maximum response to 5-HT was reduced in a concentration-dependent manner
effect on 5-HT concentration-response curve (5-HT4 receptor [1]; 10^-10-10^-8 M, n=6): parallel rightward shift of the 5-HT curve with no effect on the maximum response
slope (pA2) (5-HT4 receptor [1]; 10^-10-10^-8 M, n=6): not significantly different from unity
recovery time of responses to 5-HT (5-HT4 receptor [1]; at the highest concentrations (which reduce maximum 5-HT-evoked contractions), washout): ≤ 90 min
reversibility of antagonism (5-HT4 receptor [1]; upon washout): could be reversed upon washout
effect on DMPP-evoked contractions (nicotine receptor): unaffected
effect on 5-HT curve (5-HT4 receptor [2]; 10^-7 M): shifted the curve to the right with an apparent reduction in the maximum response
estimated pKb (-log10 Kb) (5-HT4 receptor [2]; n=2): 10.1
antagonism of 5-HT response (in words) (5-HT4 receptor [3]): concentration-dependently acted as a non-surmountable antagonist and reduced the maximum response evoked by 5-HT
Kb (5-HT4 receptor [3]; from data with the lowest effective concentration, no reliable pA2 estimate possible): ≤ 0.1 nM
pKi [4]: 9.48±0.06
pKd (5-HT1D): < 5.00
pKd (Alpha1): < 5.52
duration of action (in words) ([5]; 1 and 3 ug.kg^-1 iv): variable and apparently reversible
duration of antagonism ([5]; 10 and 100 ug.kg^-1 iv, longer than the experiment): > 285 min
ED50 ([5]; iv): 1.3 µg/kg
ED50 ([5]; po): 9.6 µg/kg
effect on basal motility ([5]; any dose, iv and po): no effect
antagonism of 5-HT-evoked tachycardia (5-HT4 receptors; 0.1, 0.3 or 1.0 ugkg^-1 iv, n=2 each): antagonised the 5-HT-evoked tachycardia in a dose-dependent manner
recovery from antagonism (5-HT4 receptors; 0.3, 1.0 ugkg^-1 i.v., over the duration of the experiment): incomplete
preparations in which the sensitising effect of 5-HT was abolished (5-HT4 receptor [6]; 10^-9 M): 3/3
tissues in which the action of 5-HT was antagonised (5-HT4 receptor [6]; 10^-10 M): 3/4
tissues in which there was no ability to antagonise the sensitising effect of 5-HT (5-HT4 receptor [6]; 10^-11 M): 4/4
duration of action ([7]; 100 ug.kg^-1, dosed 2.5 hours before 5-HTP): effective
duration of action ([7]; 100 ug.kg^-1, pre-dosed 6 hours before 5-HTP): without effect
effect on 5-HTP-evoked increase in FPO ([7]; 0.1 to 10 ug.kg^-1 s.c., 5-HTP 10 mg kg^-1 s.c.): dose-dependently prevented the 5-HTP-evoked increase in FPO
effect on fluid secretion evoked by 5-HTP ([7]; 5-HTP 10 mg kg^-1 s.c.): prevented
effect on watery diarrhoea caused by 5-HTP ([7]; 5-HTP 50 mg.kg^-1): reduce the watery diarrhoea
effect on the effects of 5-HTP, oral ([7]; 10-1000 ug.kg^-1 po, 30 min prior to 5-HTP): greatly reduced the effects of 5-HTP
effect on FPO or fluid content in normal mice ([7]; s.c. or po, not pretreated with 5-HTP): did not affect either FPO or their fluid content in normal mice
locomotion during the test (anxiolytic activity): not accompanied by any alteration in locomotion
total interaction scores (anxiolytic activity; 1 h after administration): Significantly increased total interaction scores
effect on BIMU 1 concentration-response (5-HT4 receptor [8]): reduced the maximum response to BIMU 1, without causing a prior right-ward shift in the concentration-response curve

From US5852014A, “Condensed indole derivatives as 5HT4 -receptor antagonists” (SmithKline Beecham p.l.c., priority 1992, dated 1998)
